The record followed here is patent US5413990A, “N-terminus modified analogs of LHRH” (Tap Pharmaceuticals Inc., priority 1993, dated 1995).

Molecules are shown by their SMILES. Numbered stars: 1 amine (or outer) side, 2 acyl side, 3 side chain; on linkers, the order of the positions; unused ones are H or OH. Square brackets hold non-standard residues; d marks the D form. Peptide text beside a SMILES is read from it. * marks the point of attachment. X3 = NC(=O)N[C@H](Cc1ccc2ccccc2c1)C(=O)*; dPhe(4-Cl) = N[C@H](Cc1ccc(Cl)cc1)C(=O)O; Desaminotyrosyl = O=C(CCc1ccc(O)cc1)*; d2Nal = N[C@H](Cc1ccc2ccccc2c1)C(=O)O; Cyclopentanecarbonyl = O=C(C1CCCC1)*; Lys(iPr) = CC(C)NCCCC[C@H](N)C(=O)O; NMeY = CN[C@@H](Cc1ccc(O)cc1)C(=O)O; Hydrocinnamoyl = O=C(CCc1ccccc1)*; Piperazinyl(4-Me) = CN1CCN(*)CC1; dCit = NC(=O)NCCC[C@@H](N)C(=O)O; d3Pal = N[C@H](Cc1cccnc1)C(=O)O; Suc = O=C(CCC(=O)[*:2])[*:1]; Nicotinoyl = O=C(c1cccnc1)*; Isobutyryl = CC(C)C(=O)*; Morpholide = C1CN(*)CCO1; CO = O=C([*:1])[*:2]; Propionyl = CCC(=O)*; Glycolyl = O=C(CO)*; X4 = N#CCC(=O)*; For = O=C*

What is called Kb is the equilibrium dissociation constant of an antagonist, usually derived from a functional assay.

The assay concerns the target T1, LHRH (Rattus norvegicus, UniProt P30969).
T1 construct: evaluated in an in vitro test for LHRH antagonist potency (pA2); endogenous in cells; host or cells: pituitary cells (rat, from my own knowledge of the cited method)
T1 sequence (P30969 1-327): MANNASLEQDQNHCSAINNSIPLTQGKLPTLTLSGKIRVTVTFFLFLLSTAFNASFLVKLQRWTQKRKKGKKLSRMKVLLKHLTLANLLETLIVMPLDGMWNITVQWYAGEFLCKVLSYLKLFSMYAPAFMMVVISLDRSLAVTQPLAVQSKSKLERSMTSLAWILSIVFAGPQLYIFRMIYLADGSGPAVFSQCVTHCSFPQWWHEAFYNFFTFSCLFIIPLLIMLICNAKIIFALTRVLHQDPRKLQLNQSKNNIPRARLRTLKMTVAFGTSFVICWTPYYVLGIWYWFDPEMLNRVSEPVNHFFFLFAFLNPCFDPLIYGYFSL
The assay can be described thus: in vitro test for LHRH antagonist potency (pA2). The format is cell-based. The following applies: negative logarithm of the antagonist concentration required to shift the response curve produced by the agonist leuprolide to two-fold higher concentration. The protocol:
Representative compounds of the present invention were evaluated in an in vitro test for LHRH antagonist potency (pA2). The test employed the method detailed in F. Haviv, et al. J. Med. Chem., 32:2340-2344 (1989). The values of pA2 are the negative logarithms of the concentration of the particular antagonist test compound required to shift the response curve produced by the agonist leuprolide to two-fold higher concentration. (Leuprolide is the LHRH agonist having the structure 5-oxo-Pro^1 -His^2 -Trp^3 -Ser^4 -Tyr^5 -D-Leu^6 -Leu^7 -Arg^8 -Pro^9 -NHEt and is disclosed and claimed in U.S. Pat. No. 4,005,063.) Typically pA2 values of 9.5 or greater are indicative of good LHRH antagonist potency, with values of 10.0 or greater being preferred.
`CC(C)C[C@H](NC(=O)[C@@H](CCCCNC(=O)c1cccnc1)NC(=O)[C@H](Cc1ccc(O)cc1)N(C)C(=O)[C@H](CO)NC(=O)[C@@H](Cc1cccnc1)NC(=O)[C@@H](Cc1ccc(Cl)cc1)NC(=O)[C@@H](Cc1ccc2ccccc2c1)NC(=O)CC#N)C(=O)N[C@@H](CCCCNC(C)C)C(=O)N1CCC[C@H]1C(=O)N[C@H](C)C(N)=O` [Example 2e, N-Cyanoacetyl-D2Nal-D4ClPhe-D3Pal-Ser-NMeTyr-DLys(N-epsilon-Nicotinyl)-Leu- Lys(N-epsilon-Isopropyl)-Pro-DAlaNH2] (X4-[d2Nal][dPhe(4-Cl)][d3Pal]S[NMeY][dK](Nicotinoyl)L[Lys(iPr)]P[dA]-NH2): the Kb is 0.00316 nM.
The value for `CC(C)C[C@H](NC(=O)[C@@H](CCCNC(N)=O)NC(=O)[C@H](Cc1ccc(O)cc1)N(C)C(=O)[C@H](CO)NC(=O)[C@@H](Cc1cccnc1)NC(=O)[C@@H](Cc1ccc(Cl)cc1)NC(=O)[C@@H](Cc1ccc2ccccc2c1)NC(N)=O)C(=O)N[C@@H](CCCNC(=N)N)C(=O)N1CCC[C@H]1C(=O)N[C@H](C)C(N)=O` [Example 7, N:(Aminocarbonyl)-D2Nal-D4ClPhe-D3 Pal-Ser- NMeTyr-DCit-Leu-Arg-ProDAIaNH2] (X3-[dPhe(4-Cl)][d3Pal]S[NMeY][dCit]LRP[dA]-NH2) was 0.00603 nM.
Consider `CC(C)C[C@H](NC(=O)[C@@H](CCCNC(N)=O)NC(=O)[C@H](Cc1ccc(O)cc1)N(C)C(=O)[C@H](CO)NC(=O)[C@@H](Cc1cccnc1)NC(=O)[C@@H](Cc1ccc(Cl)cc1)NC(=O)[C@@H](Cc1ccc2ccccc2c1)NC(=O)N1CCOCC1)C(=O)N[C@@H](CCCNC(=N)N)C(=O)N1CCC[C@H]1C(=O)N[C@H](C)C(N)=O` [Example 8b, N-(Morpholinocarbonyl)-D2Nal-D4ClPhe-D 3Pal- Ser-NMeTyr-DCit-Leu-Arg-Pro-DAlaNH2] ({Morpholide-CO}-[d2Nal][dPhe(4-Cl)][d3Pal]S[NMeY][dCit]LRP[dA]-NH2), for which the Kb is 0.02 nM.
`CCC(=O)N[C@H](Cc1ccc2ccccc2c1)C(=O)N[C@H](Cc1ccc(Cl)cc1)C(=O)N[C@H](Cc1cccnc1)C(=O)N[C@@H](CO)C(=O)N(C)[C@@H](Cc1ccc(O)cc1)C(=O)N[C@H](CCCCNC(=O)c1cccnc1)C(=O)N[C@@H](CC(C)C)C(=O)N[C@@H](CCCCNC(C)C)C(=O)N1CCC[C@H]1C(=O)N[C@H](C)C(N)=O` [Example 2a, N-Propionyl-D2Nal-D4ClPhe-D3Pal-Ser-NMeTyr-DLys(N-epsilon-Nicotinyl)-Leu-Lys(N-epsilon-Isopropyl)-Pro-DAlaNH 2] (Propionyl-[d2Nal][dPhe(4-Cl)][d3Pal]S[NMeY][dK](Nicotinoyl)L[Lys(iPr)]P[dA]-NH2): the antagonist equilibrium constant (Kb) is 0.00501 nM.
In the case of `CC(C)C[C@H](NC(=O)[C@@H](CCCNC(N)=O)NC(=O)[C@H](Cc1ccc(O)cc1)N(C)C(=O)[C@H](CO)NC(=O)[C@@H](Cc1cccnc1)NC(=O)[C@@H](Cc1ccc(Cl)cc1)NC(=O)[C@@H](Cc1ccc2ccccc2c1)NC=O)C(=O)N[C@@H](CCCNC(=N)N)C(=O)N1CCC[C@H]1C(=O)N[C@H](C)C(N)=O` [Example 5a, N-Formyl-D2Nal-D4ClPhe-D3Pal-Ser-NMeTyr-DCit-Leu-Arg-Pro-DAlaNH2] (For-[d2Nal][dPhe(4-Cl)][d3Pal]S[NMeY][dCit]LRP[dA]-NH2), the antagonist dissociation constant (Kb) is 0.00447 nM.
In the case of `CC(C)C[C@H](NC(=O)[C@@H](CCCCNC(=O)c1cccnc1)NC(=O)[C@H](Cc1ccc(O)cc1)N(C)C(=O)[C@H](CO)NC(=O)[C@@H](Cc1cccnc1)NC(=O)[C@@H](Cc1ccc(Cl)cc1)NC(=O)[C@@H](Cc1ccc2ccccc2c1)NC(=O)CCC(=O)O)C(=O)N[C@@H](CCCCNC(C)C)C(=O)N1CCC[C@H]1C(=O)N[C@H](C)C(N)=O` [Example 3, N-Succinyl-D2Nal-D4ClPhe-D3Pal-Ser-NMeTyr-DLys(Nicotinyl)-Leu-Lys(N-epsilon-lsopropyl.)-Pro-DAlaNH2] (Suc-[d2Nal][dPhe(4-Cl)][d3Pal]S[NMeY][dK](Nicotinoyl)L[Lys(iPr)]P[dA]-NH2) it was 0.0513 nM; in that of `CC(C)C[C@H](NC(=O)[C@@H](CCCNC(N)=O)NC(=O)[C@H](Cc1ccc(O)cc1)N(C)C(=O)[C@H](CO)NC(=O)[C@@H](Cc1cccnc1)NC(=O)[C@@H](Cc1ccc(Cl)cc1)NC(=O)[C@@H](Cc1ccc2ccccc2c1)NC(=O)N1CCN(C)CC1)C(=O)N[C@@H](CCCNC(=N)N)C(=O)N1CCC[C@H]1C(=O)N[C@H](C)C(N)=O` [Example 8d, N-(N'-Methylpiperazinylcarbonyl)-D2Nal-D4ClPhe-D3Pal-Ser-NMeTyr-DCit-Leu-Arg-Pro-DAlaNH2] ({Piperazinyl(4-Me)-CO}-[d2Nal][dPhe(4-Cl)][d3Pal]S[NMeY][dCit]LRP[dA]-NH2), 0.0398 nM; in that of `CC(C)C[C@H](NC(=O)[C@@H](CCCCNC(=O)c1cccnc1)NC(=O)[C@H](Cc1ccc(O)cc1)N(C)C(=O)[C@H](CO)NC(=O)[C@@H](Cc1cccnc1)NC(=O)[C@@H](Cc1ccc(Cl)cc1)NC(=O)[C@@H](Cc1ccc2ccccc2c1)NC(=O)CCc1ccc(O)cc1)C(=O)N[C@@H](CCCCNC(C)C)C(=O)N1CCC[C@H]1C(=O)N[C@H](C)C(N)=O` [Example 2m, N-3-(4-Hydroxyphenyl)propionyl-D2Nal-D4ClPhe-D3Pal-Ser-NMeTyr-DLys(N-epsilon-Nicotinyl)-Leu-Lys(N-epsilon -Isopropyl)-Pro-DAlaNH2] (Desaminotyrosyl-[d2Nal][dPhe(4-Cl)][d3Pal]S[NMeY][dK](Nicotinoyl)L[Lys(iPr)]P[dA]-NH2), 0.02 nM.
In the case of `CCNC(=O)N[C@H](Cc1ccc2ccccc2c1)C(=O)N[C@H](Cc1ccc(Cl)cc1)C(=O)N[C@H](Cc1cccnc1)C(=O)N[C@@H](CO)C(=O)N(C)[C@@H](Cc1ccc(O)cc1)C(=O)N[C@H](CCCNC(N)=O)C(=O)N[C@@H](CC(C)C)C(=O)N[C@@H](CCCNC(=N)N)C(=O)N1CCC[C@H]1C(=O)N[C@H](C)C(N)=O` [Example 8a, N-(Ethylaminocarbonyl)-D2Nal- D4ClPhe-D3Pal-Ser-NMeTyr-DCit-Leu-Arg-ProDAlaNH2] ({NHEt-CO}-[d2Nal][dPhe(4-Cl)][d3Pal]S[NMeY][dCit]LRP[dA]-NH2) it was 0.0933 nM; in that of `CC(C)C[C@H](NC(=O)[C@@H](CCCCNC(=O)c1cccnc1)NC(=O)[C@H](Cc1ccc(O)cc1)N(C)C(=O)[C@H](CO)NC(=O)[C@@H](Cc1cccnc1)NC(=O)[C@@H](Cc1ccc(Cl)cc1)NC(=O)[C@@H](Cc1ccc2ccccc2c1)NC(=O)C1CCCC1)C(=O)N[C@@H](CCCCNC(C)C)C(=O)N1CCC[C@H]1C(=O)N[C@H](C)C(N)=O` [Example 2g, N-Cyclopentylcarbonyl-D2Nal-D4ClPhe-D3Pal-Ser-NMeTyr-DLys(N-epsilon-Nicotinyl)-Leu-Lys(N-epsilon-lsopropyl)-Pro-DAlaNH 2] (Cyclopentanecarbonyl-[d2Nal][dPhe(4-Cl)][d3Pal]S[NMeY][dK](Nicotinoyl)L[Lys(iPr)]P[dA]-NH2), 0.0708 nM.
With `CC(C)C[C@H](NC(=O)[C@@H](CCCCNC(=O)c1cccnc1)NC(=O)[C@H](Cc1ccc(O)cc1)N(C)C(=O)[C@H](CO)NC(=O)[C@@H](Cc1cccnc1)NC(=O)[C@@H](Cc1ccc(Cl)cc1)NC(=O)[C@@H](Cc1ccc2ccccc2c1)NC(=O)C(C)C)C(=O)N[C@@H](CCCCNC(C)C)C(=O)N1CCC[C@H]1C(=O)N[C@H](C)C(N)=O` [Example 2c, N-Isobutyryl-D2Nal-D4ClPhe-D3Pal- Ser-NMeTyr-DLys(N-epsilon-Nicotinyl)-Leu-Lys(N-epsilon-Isopropyl)-Pro-DAlaNH2] (Isobutyryl-[d2Nal][dPhe(4-Cl)][d3Pal]S[NMeY][dK](Nicotinoyl)L[Lys(iPr)]P[dA]-NH2), the Kb was 0.0178 nM.
For `CC(C)C[C@H](NC(=O)[C@@H](CCCCNC(=O)c1cccnc1)NC(=O)[C@H](Cc1ccc(O)cc1)N(C)C(=O)[C@H](CO)NC(=O)[C@@H](Cc1cccnc1)NC(=O)[C@@H](Cc1ccc(Cl)cc1)NC(=O)[C@@H](Cc1ccc2ccccc2c1)NC(=O)CCc1ccccc1)C(=O)N[C@@H](CCCCNC(C)C)C(=O)N1CCC[C@H]1C(=O)N[C@H](C)C(N)=O` [Example 2l, N-3-Phenylpropionyl-D2Nal-D4ClPhe-D3Pal-Ser-NMeTyr-DLys(N-epsilon-Nicotinyl)-Leu-Lys(N-epsilon-Isopropyl)-Pro-DAlaNH 2] (Hydrocinnamoyl-[d2Nal][dPhe(4-Cl)][d3Pal]S[NMeY][dK](Nicotinoyl)L[Lys(iPr)]P[dA]-NH2), the Kb is 0.0126 nM.
As to `CC(C)C[C@H](NC(=O)[C@@H](CCCNC(N)=O)NC(=O)[C@H](Cc1ccc(O)cc1)N(C)C(=O)[C@H](CO)NC(=O)[C@@H](Cc1cccnc1)NC(=O)[C@@H](Cc1ccc(Cl)cc1)NC(=O)[C@@H](Cc1ccc2ccccc2c1)NC(=O)CO)C(=O)N[C@@H](CCCNC(=N)N)C(=O)N1CCC[C@H]1C(=O)N[C@H](C)C(N)=O` [Example 4, N-Glycolyl-D2Nal-D4ClPhe-D3Pal-Ser-NMeTyr-DCit-Leu-Arg-Pro-DAlaNH2] (Glycolyl-[d2Nal][dPhe(4-Cl)][d3Pal]S[NMeY][dCit]LRP[dA]-NH2), the antagonist dissociation constant (Kb) is 0.00661 nM.
